Data: EP4707393A1, “DOUBLE-STRANDED SIRNA, CONJUGATE THEREOF AND USE THEREOF” (CMS Research & Development Pte. Ltd., priority 2023, dated 2024)
pEC50: −log10 of the molar value.

What was measured:
[1] = system: human LPA gene (Genbank number: NM_005577.4); assay: Inhibitory activity against LPA mRNA, psiCHECK-2 dual-luciferase reporter vector in Huh7 cells; assay type: cell-based; settings: Huh7 cells transfected with LPA_psiCHECK-2 plasmid, RNAiMAX transfection
Method: A stock solution was prepared by dissolving in PBS and stored at -20 °C.
The human LPA gene (Genbank number: NM_005577.4) was cloned into the psiCHECK™-2 vector.
Huh7 cells were cultured in DMEM (Gibco-11995-065, 500 mL) medium, supplemented with FBS (ExCellBio-FSP500, 57 mL), Penicillin-Streptomycin solution (Hyclone-SV30010, 5.7 mL), GlutaMAX™ (Gibco-35050-061, 5.7 mL) and Non-Essential Amino Acids Solution (Gibco-11140050, 5.7 mL).
On Day 1, a method for transfection of the LPA_PSICHECK (TM)-2 plasmid is briefly described as follows: Huh7 cells were washed with DPBS, followed by digestion with 0.05% trypsin, gently pipetted into single cells in DMEM containing 10% FBS, and counted. Plasmid DNA was transferred into Huh7 cells using Fugene HD. The transfected cells were seeded into 96-well plates at a density of 10,000 cells per well, with 100 µL culture medium per well. The cells were incubated overnight in a 5% CO2 incubator at 37 °C.
On Day 2, the test compounds were diluted serially with PBS to 3 concentrations.
RNAiMAX transfection reagent was prepared by blending homogeneously with Opti-MEM at a ratio of RNAiMAX: Opti-MEM=3:47 in a 15 mL centrifuge tube as needed. The compounds were mixed with the RNAiMAX/Opti-MEM (1:1) and incubated for 15 min. The compound-containing RNAiMAX/Opti-MEM mixture was diluted 10-fold with fresh medium and blended homogeneously.
The medium in each well was aspirated, and then 100 µL of the fresh compound-containing medium was added, and then incubated in a 5% CO2, 37 °C incubator.
Experimental procedures refer to DUAL-GLO® Dual Luciferase Assay System instructions, briefly described as follows: Taking out the cells from the incubator, aspirating and discarding the supernatant, adding 75µL fresh culture medium and 75µL detection reagent, shaking for 10 minutes in the dark, and after the cells had been fully lysed, transfering100µL sample to an opaque whiteboard for detecting the Firefly luminescence signal; adding 50 µL Dual-Glo®Stop & Glo® test reagent to each well and detecting the Renilla luciferase signal after shaking for 10 minutes in the dark. The ratio of the reporter signal to the internal control reporter signal was calculated for each well.
[formula] % Inhibition = (1-Sampleratio/RNAiMAXcontrolratio) × 100% [formula]

hPBMCs = assay: Immunogenicity test in hPBMCs (IL-6 and TNF-α ELISA of supernatant); assay type: cell-based, human; settings: donor 1 hPBMCs, 18-20 h
Method: 1 Experimental material • 1.1 Double-stranded siRNA conjugates • 1.2 hPBMCs, purchased from Shanghai Sailybio Medical Co., LTD. • 1.3 Main reagents: Penicillin-Streptomycin (Cat. No.: 15140122), RNase-free water (Cat. No.: AM9938), IL-6 ELISA kit (Cat. No.: 555220), TNF-α ELISA kit (Cat. No.: 555212), LPS (Cat. No.: L2630), etc. 2 Experimental method • 2.1 Compound Preparation: Compounds were prepared as stock solutions with enzyme-free water. Compound weight = powder weight * purity. The concentration of prepared solutions was 900 µg/mL, followed by three-fold serial dilution with enzyme-free water. Each concentration was diluted 10-fold with 1640 medium, resulting in a final enzyme-free water content of 5.0%. • 2.2 Experimental procedure: • 2.2.1 PBMC cells were resuscitated one day in advance and incubated overnight in 1640 complete medium. • 2.2.2 On the day of the experiment, PBMC cells were centrifuged at 300 × g for 8 minutes, and the cell density was adjusted to 1.6 × 10^6 mL with 1640 complete medium. The cells were then added to a 96-well plate, 125 µL per well, and incubated in a 37 °C, 5% CO2 incubator for 15 minutes. • 2.2.3 The diluted test compounds were added to the 96-well plate according to the plate map, all in duplicate, 125 µL for each well; the positive control group and the blank group were added with an equal volume of 1640 complete culture medium containing the same amount of enzyme-free water. • 2.2.4 After gently shaking, the well plates were incubated in an incubator at 37 °C for 18-20 h. The supernatant was collected by centrifugation, and secretions of TNF-α and IL-6 were detected by ELISA. • 2.2.5 Data were analyzed using GraphPad Prism 8 software. 3 Experimental results Table 10. IL-6 and TNF-α levels in the cell supernatant of donor 1 hPBMCs treated with different doses of test compounds

## Z37: siRNA conjugate: sense SEQ ID NO:51, ligand D18 at 3' end of sense strand, antisense SEQ ID NO:76 (sense CCTGCCAAGCTTGGTCATCTA; antisense TAGATGNCCAAGCTTGGCNGGTT; ligand D18 at sense 3' end; listed as RNA; modified_base 1..2: mod_base = OTHER; note = 2'-O-methylcytidine; modified_base 3: mod_base = OTHER; note = 2'-O-methyluridine; modified_base 4: mod_base = OTHER; note = 2'-O-methylguanosine; modified_base 5..6: mod_base = OTHER; note = 2'-O-m; modified_base 1: mod_base = OTHER; note = E-type vinylphosphonate-modified 2'-O-methyluridine; modified_base 2: mod_base = OTHER; note = 2'-deoxyadenosine; modified_base 4: mo)
[1]
  pEC50: 9.64

## Z41: siRNA conjugate: sense SEQ ID NO:49, ligand D01 at 3' end of sense strand, antisense SEQ ID NO:79 (sense CAGCCCCTTATTGTTATACGA; antisense NCGTATNACAATAAGGGGCNGTT; ligand D01 at sense 3' end; listed as RNA; modified_base 1: mod_base = OTHER; note = 2'-O-methylcytidine; modified_base 2: mod_base = OTHER; note = 2'-O-methyladenosine; modified_base 3: mod_base = OTHER; note = 2'-O-methylguanosine; modified_base 4..7: mod_base = OTHER; note = 2'-O-me; note = n is B29; note = 2'-deoxycytidine; modified_base 4: mod_base = OTHER; note = 2'-O-methyluridine; m)
[1]
  pEC50: 10.05
hPBMCs; 5 µg/mL
  IL-6: 1362.7 pg/mL
  TNF alpha: 37.3 pg/mL
hPBMCs; 15 µg/mL
  IL-6: 2424.8 pg/mL
  TNF alpha: 94.0 pg/mL
hPBMCs; 45 µg/mL
  IL-6: 1537.6 pg/mL
  TNF alpha: 44.7 pg/mL

## Z49: siRNA conjugate: sense SEQ ID NO:51, ligand D01 at 3' end of sense strand, antisense SEQ ID NO:85 (sense CCTGCCAAGCTTGGTCATCTA; antisense NAGATGNCCAAGCTTGGCNGGTT; ligand D01 at sense 3' end; listed as RNA; modified_base 1..2: mod_base = OTHER; note = 2'-O-methylcytidine; modified_base 3: mod_base = OTHER; note = 2'-O-methyluridine; modified_base 4: mod_base = OTHER; note = 2'-O-methylguanosine; modified_base 5..6: mod_base = OTHER; note = 2'-O-m; modified_base 1: mod_base = OTHER; note = n is B36; modified_base 2: mod_base = OTHER; note = 2'-deoxyadenosine; note = 2'-O-methyladenosine)
[1]
  pEC50: 9.20

## Z50: siRNA conjugate: sense SEQ ID NO:51, ligand D01 at 3' end of sense strand, antisense SEQ ID NO:86 (sense CCTGCCAAGCTTGGTCATCTA; antisense TCTAGATNACCAAGCTTGGCAGG; ligand D01 at sense 3' end; listed as RNA; modified_base 1..2: mod_base = OTHER; note = 2'-O-methylcytidine; modified_base 3: mod_base = OTHER; note = 2'-O-methyluridine; modified_base 4: mod_base = OTHER; note = 2'-O-methylguanosine; modified_base 5..6: mod_base = OTHER; note = 2'-O-m; modified_base 1: mod_base = OTHER; note = 2'-fluoroadenosine; modified_base 5: mod_base = OTHER; note = 2'-O-methyl)
[1]
  pEC50: 9.39

## Z51: siRNA conjugate: sense SEQ ID NO:49, ligand D01 at 3' end of sense strand, antisense SEQ ID NO:87 (sense CAGCCCCTTATTGTTATACGA; antisense TCGTATNACAATAAGGGGCNGTT; ligand D01 at sense 3' end; listed as RNA; modified_base 1: mod_base = OTHER; note = 2'-O-methylcytidine; modified_base 2: mod_base = OTHER; note = 2'-O-methyladenosine; modified_base 3: mod_base = OTHER; note = 2'-O-methylguanosine; modified_base 4..7: mod_base = OTHER; note = 2'-O-me; note = 2'-O-methyluridine; note = 2'-deoxycytidine; modified_base 4: mod_base = OTHER; note = 2'-O-methyl)
[1]
  pEC50: 9.51

## Z52: siRNA conjugate: sense SEQ ID NO:53, ligand D01 at 3' end of sense strand, antisense SEQ ID NO:88 (sense CTTGCCAAGCTTGGTCATCTA; antisense TCTAGATGNCCAAGCTTGGCAAG; ligand D01 at sense 3' end; listed as RNA; modified_base 1: mod_base = OTHER; note = 2'-O-methylcytidine; modified_base 2: mod_base = OTHER; note = 2'-O-methyluridine; modified_base 3: mod_base = OTHER; modified_base 4: mod_base = OTHER; note = 2'-O-methylgua; note = 2'-fluoroadenosine; modified_base 5: mod_base = OTHER; note = 2'-O-methyl)
[1]
  pEC50: 9.85
